According to patent US20090068143A1, “ORALLY EFFECTIVE C[…]” (priority 2005, published 2009):

How the values were obtained:
400 Gene Array = experiment: Gene array analysis of spinal cords, MOG induced EAE; type: in vivo, mouse; details: out of the 400 genes tested
Method: In an additional study, the gene expression profiling was performed using a 400 Gene Array series kit of SuperArray Bioscience Corporation according to manufacturer protocol and RNA extracted from spinal cords of treated or untreated animals, as above described. The scanned data were converted to mRNA expression levels and analyzed using two softwares, ScanAlayze and GEArray Analyzer. […] The genes so identified will be further analyzed by real time RT-PCR at other time points during disease progression. It is interesting to note that the genes whose expression is altered in MOG induced EAE animals following treatment with compounds of the invention broadly speaking encode for proteins involved in the immune system, such as STAT proteins which are involved in signal transduction of several cytokines and growth factors, JAK kinases, β2-microglobulin, TNF-receptor superfamily, calmodulins, and cyclin-dependent kinases.

iNOS [1] = experiment: iNOS gene expression in LPS activated RAW 264.7 macrophages (real-time RT-PCR); type: cell-based, mouse
Method: (§1) RAW 264.7 macrophages, a mouse cell line (ATCC # TIB 71), were grown in Dulbecco's modified Eagle's medium (DMEM) with 4 mM L-glutamine adjusted to contain 1.5 g/L sodium bicarbonate, 4.5 g/L glucose, and 10% heat inactivated fetal bovine serum. Cells were grown in tissue culture flasks and seeded at appropriate density into 6 wells tissue culture plates. Four million Raw cells in half a milliliter were stimulated with 1 μg/ml Lipopolysaccharide E. coli 055:B5 (DIFCO Laboratories). The mouse macrophages were pre-treated for one hour with controls or 10 μM of test compounds, and later on activated with LPS. RNA samples were extracted from the cells 3 hrs after activation and iNOS gene expression levels were analyzed by real-time RT-PCR as previously described. For western blot analysis, compounds were tested at 1, 5 and 10 μM and cells were harvested 24 hrs after LPS stimulation. Supernatant were collected and NO secretion was analyzed using ELISA. Cells were washed 3 times with cold PBS, scrapped and lyzed in 100 μl cell lysis buffer containing 20 mM HEPES, pH 7.6, 150 mM NaCl, 1.5 mM MgCl2, 0.2 mM EDTA, 1% Triton X-100, 10% glycerol, 1 mM DTT, 1 mM PMSF, 10 μg/ml aprotinin. 5 µg/ml leupeptin, 10 mM p-nitrophenyl phosphate, 100 mM β-glycerophosphate, 1 mM sodium fluoride, and 0.1 μM sodium orthovanadate. Cells were lyzed on ice for 10 minutes before further processing.
The results of this experiment are expressed as fold activation of iNOS over non-activated macrophages, after normalization to cyclophilin A expression. Compound 18A inhibits 63% of iNOS gene expression, and compounds 18B, 18E and 18F inhibit 55%, 25% and 100% respectively. […] This surprising observation strengthen the fact that compounds of the invention, though chemically related, have distinct and unexpected properties.

RAW 264.7 macrophages = experiment: NO secretion of LPS activated RAW 264.7 macrophages (ELISA); type: cell-based; details: Mus musculus, RAW264.7, 24 hrs after LPS stimulation
Method: as §1, with “processing. […]” for “processing.”

iNOS [2] = experiment: iNOS protein expression in activated macrophages (western blot); type: cell-based, mouse; details: 1, 5 and 10 μM, 24 hrs after LPS stimulation
Method: as §1, with “Cells were washed 3 times with cold PBS, scrapped and lyzed in 100 μl cell lysis buffer containing 20 mM HEPES, pH 7.6, 150 mM NaCl, 1.5 mM MgCl2, 0.2 mM EDTA, 1% Triton X-100, 10% glycerol, 1 mM DTT, 1 mM PMSF, 10 μg/ml aprotinin. 5 µg/ml leupeptin, 10 mM p-nitrophenyl phosphate, 100 mM β-glycerophosphate, 1 mM sodium fluoride, and 0.1 μM sodium orthovanadate. Cells were lyzed on ice for 10 minutes before further processing.” left out
To assess correlation between gene expression and protein expression, protein extracts were prepared from the various treated activated macrophages. […] Primary antibodies against cyclophilin A were used as control (Upstate, Cat# 07-313), and the amount of iNOS was assessed using NOS2 (C11) Santa Cruz antibodies (Cat# SC-7271) were hybridized for 2 hours at room temperature. […]

[3] = system: Taxol® induced neuropathic pain; experiment: Taxol® induced neuropathic pain; type: in vivo, Sprague Dawley rats
Method: Male Sprague Dawley rats (average body weight 150-200 g, Harlan, Israel) were administered i.p. with 6 mg/kg Taxol® (Bristol Myers Squibb, USA) every other day for 9 days. On day 13, baseline pain threshold was measured. One hour later, the animals were administered with 5 ml/kg i.p. of vehicle (PB) only and pain threshold was re-established. After an additional hour animals were treated with various doses of compound 18F ranging from 0.5 mg/kg up to 10 mg/kg administered i.p. Morphine at 5 mg/kg i.p. and gabapentin at 100 mg/kg i.p served as positive controls. Each treatment group comprised at least eight animals. One hour post drug administration pain threshold was monitored using thermal and mechanical stimuli as previously described. At the end of the study, rats were euthanized with sodium pentobarbitone 100 mg/kg i.p. Sample rats were then transfused with saline and heparinized 4% formaldehyde solution. The L4-L5 area of the spinal cord and the sciatic nerve were taken for histopathology assessment.
The time latencies for thermal hyperalgesia, and force needed to induce pain of the different treatment groups are compared, using one way ANOVA (analysis of variance), followed by Duncan's post hoc test. A p<0.05 value was considered statistically significant and is indicated on the figure by an asterisk over the relevant treatment group.

CB2 receptor = CB2 receptor (Homo sapiens, UniProt P34972); experiment: CB2 binding assay
[4] = system: PLP induced remitting-relapsing EAE; experiment: PLP induced remitting-relapsing EAE

CB2 receptor, sequence (P34972 whole entry): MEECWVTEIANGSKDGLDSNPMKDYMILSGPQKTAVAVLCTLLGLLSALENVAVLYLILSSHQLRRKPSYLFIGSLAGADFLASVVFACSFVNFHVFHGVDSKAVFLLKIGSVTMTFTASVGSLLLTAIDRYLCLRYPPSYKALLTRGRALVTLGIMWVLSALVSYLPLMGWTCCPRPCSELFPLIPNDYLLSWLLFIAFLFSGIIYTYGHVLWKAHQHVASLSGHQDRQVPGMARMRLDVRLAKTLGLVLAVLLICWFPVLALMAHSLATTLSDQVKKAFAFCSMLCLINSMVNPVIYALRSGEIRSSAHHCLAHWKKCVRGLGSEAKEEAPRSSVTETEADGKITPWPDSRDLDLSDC

## CCCCCCC(C)(C)c1cc(O)c([C@H]2CC(=O)C3CC2C3(C)C)c(OC(=O)/C=C/C(=O)O)c1 (single isomer, unassigned; (-)) [Compound 18F, (−)-4-{4-[1,1-Dimethylheptyl]-2-fumarate-6-hydroxy-phenyl}-6,6-dimethyl-bicyclo[3.1.1]heptan-2-one]
400 Gene Array
  genes down-regulated or up-regulated by more than 1.5 fold upon treatment: twenty
iNOS [1]; 5 μM of SR-141716 and SR-144528
  effect of CB1 or CB2 antagonists on iNOS inhibiting activity: only blocked by CB2 antagonists
iNOS [1]; 10 μM, 1 h pre-treatment, 3 hrs after LPS activation
  inhibition of iNOS gene expression: 100%
RAW 264.7 macrophages
  inhibition at 10 µM: 61%
iNOS [2]
  iNOS protein band (western blot): clear dose dependent disappearance of iNOS protein band
[3]; 10 mg/kg i.p., baseline 15 gm, untreated 5 gm
  effect on pain threshold: increased the pain threshold back to pre-Taxol® baseline
[3]; 1, 5 and 10 mg/kg i.p.
  effect on pain threshold versus vehicle: statistically significant from the vehicle treated animals
CB2 receptor
  IC50: 9 nM
[4]; 40 mg/kg p.o. daily for 25 days
  relapse postponed as compared to controls: 5 to 7 days
[4]; 40 mg/kg p.o. daily for 25 days from day 25, controls 0.7 and 0.8
  clinical score of the second peak: 0.5
[4]; 40 mg/kg p.o. for 25 days
  side effects: No side effects were observed
[4]; 40 mg/kg p.o., day 35 to day 58, control 8.1
  AUC of clinical score: 2.1
[4]; 40 mg/kg p.o., day 35 to day 58, p=0.0025
  reduction in AUC as compared to control: 74%
[4]; 40 mg/kg p.o., day 38 till end of study
  average reduction of clinical score: 28%
